US20090176817A1, “Method of Treatment of Diarrhea-Predominant Irritable Bowel Syndrome in a Subject” (priority 2005, published 2009)
Like-named read-outs stand apart in the source and are kept apart here.

How the values were obtained:
[1] = system: diarrhea-predominant IBS subjects; format: in vivo, human; conditions: for Percentage of Subjects Who Worsened from Baseline: Daily Abdominal Pain / Percentage of Subjects Who Worsened from Baseline: Daily Urgency: S241.3.009, observed value
From the text: The primary efficacy parameter was the overall response rate for IBS symptoms, based on the weekly question concerning adequate relief of IBS symptoms (abdominal pain/discomfort, abnormal bowel habits) over the 26 weeks period. A responder was a subject who responded “yes” at least 50% of the time during his/her treatment period, with minimum treatment duration of four weeks. The two main secondary efficacy parameters were overall responder rate based on the weekly question on adequate relief of abdominal pain/discomfort and abnormal bowel habits during the 26-week treatment period. The onset of action of cilansetron was also examined using daily diary data (stool frequency, and ratings of urgency and severity) during the initial 8 weeks of trial participation. An additional key secondary efficacy parameter was the number of months (one month equals four weeks) up to six months (24-weeks) that a subject was a responder for IBS symptoms, where a responder was defined as a subject who answered the weekly question with “yes” at least twice for that month. The responder rate for the weekly diary questions on adequate relief at each month and all months, the adequate relief rate, the number of subjects with adequate relief by week, daily diary questions, IBS-QOL scores, and the interruption of activities were also assessed. Safety was evaluated by physical examination, ECG, vital signs, laboratory evaluations, concomitant medications, and AEs.
Studies S24 1.3.OO6, S24 1.3.0 1 1, and S24 1.3.009 used the following efficacy measurements: • The subjects answered the following three questions with “yes” or “no” using a phone diary at the end of each week: • a) During the last week, did you experience adequate relief of your IBS symptoms, such as abdominal pain, abdominal discomfort, abnormal bowel habits? • b) During the last week, did you experience adequate relief of your abdominal pain and/or discomfort? • c) During the last week, did you experience adequate relief of your abnormal bowel habits? • The subjects rated the following symptoms using the phone diary at the end of each day: • abdominal pain/discomfort (five-point scale); • stool consistency (seven-point Bristol Stool Scale); • stool frequency (number of bowel movements each day); • urgency (five-point scale); • straining (yes or no); • feeling of incomplete defecation (yes or no); • bloating or feeling of abdominal distension (five-point scale). • In Studies S241 A006 and S241.3.009, subjects completed the IBS-QOL Survey at Baseline (Day 1) and at the end of treatment. In Study S24 1.3.0 1 1, subjects completed the IBS-QOL Survey at Baseline (Day 1), at the end of the three-month treatment period, and at the end of rerandomized treatment.
Other secondary efficacy parameters for all three studies included: • Responder rate for the weekly diary questions on adequate relief at each month, where a responder for a month (monthly responder) was defined as a subject who answered the weekly question with “yes” at least twice for that month. The responder rate was the percentage of responders within a treatment group. The all-month responder rate for the weekly diary questions on adequate relief was also evaluated, where an all-month responder was defined as a subject who answered the weekly question with “yes” at least twice for each month. […]

[2] = system: healthy subjects; experiment: Study K.241.5009: esophageal visceral perception; format: in vivo, human; conditions: mean (SD); for Pressure first producing esophageal pain / Pressure first producing esophageal sensation / Volume first producing esophageal pain / Volume first producing esophageal sensation: absolute value; for Pressure first producing esophageal pain, Differences from Placebo / Pressure first producing esophageal sensation, Differences from Placebo / Volume first producing esophageal pain, Differences from Placebo / Volume first producing esophageal sensation, Differences from Placebo: not significant
Method: The effect of cilansetron on esophageal visceral perception was evaluated in a randomized, double-blind, placebo-controlled, 3-way crossover study in 12 male healthy subjects (ITT population), aged 32-62 years. Subjects received placebo, cilansetron 4 mg, or cilansetron 8 mg administered orally TID for 7 days during each of the 3 periods, with a 7-day washout between periods. Esophageal distension tests were done one hour after administration of the second dose on Day 7 of each treatment. A manually inflated intraesophageal balloon was used to produce distensions (successive 1 mL increases, up to a sensation of […] pain or a maximum balloon volume of 20 mL). The primary efficacy parameter was the distension volume inducing esophageal pain. Secondary parameters were the distension volumes and pressures leading to first esophageal sensation. The pain threshold and other secondary parameters for each of the cilansetron doses was compared to placebo using a one-sided Dunnett t-test.

[3] = both, human, in vivo, 32 mg

Cc1nccn1C[C@H]1CCc2c(c3cccc4c3n2CCC4)C1=O [Cilansetron, (R)-(−)-4,5,6,8,9,10-hexahydro-10-[(2-methyl-1H-imidazol-1-yl)methyl]-11H-pyrido-[3,2,1-jk]-carbazol-11-one]
Mean number of stools per day at end of treatment ([1]; 2 mg TID): 1.96 stools per day | Stools per day ([1]; Day 2 of treatment): 2.97 stools per days | Median rate of pain-free days ([1]; Month 1 to Month 3): 0.13 | Median rate of urgency-free days ([1]; Month 1 to Month 3): 0.05 | Median rate of pain-free days ([1]; Month 4 to Month 6): 0.31 | Median rate of urgency-free days ([1]; Month 4 to Month 6): 0.10 | Percentage of Subjects Who Worsened from Baseline: Daily Abdominal Pain ([1]; Weeks 1-2, 2 mg TID): 13% | Percentage of Subjects Who Worsened from Baseline: Daily Urgency ([1]; Weeks 1-2, 2 mg TID): 7% | Percentage of Subjects Who Worsened from Baseline: Daily Abdominal Pain ([1]; Weeks 3-4, 2 mg TID): 8% | Percentage of Subjects Who Worsened from Baseline: Daily Urgency ([1]; Weeks 3-4, 2 mg TID): 5% | Percentage of Subjects Who Worsened from Baseline: Daily Abdominal Pain ([1]; Weeks 5-6, 2 mg TID): 8% | Percentage of Subjects Who Worsened from Baseline: Daily Urgency ([1]; Weeks 5-6, 2 mg TID): 5% | Percentage of Subjects Who Worsened from Baseline: Daily Abdominal Pain ([1]; Weeks 7-8, 2 mg TID): 7% | Percentage of Subjects Who Worsened from Baseline: Daily Urgency ([1]; Weeks 7-8, 2 mg TID): 4% | Percentage of Subjects Who Worsened from Baseline: Daily Abdominal Pain ([1]; Weeks 9-10, 2 mg TID): 4% | Percentage of Subjects Who Worsened from Baseline: Daily Urgency ([1]; Weeks 9-10, 2 mg TID): 6% | Percentage of Subjects Who Worsened from Baseline: Daily Abdominal Pain ([1]; Weeks 11-12, 2 mg TID): 7% | Percentage of Subjects Who Worsened from Baseline: Daily Urgency ([1]; Weeks 11-12, 2 mg TID): 4% | Percentage of Subjects Who Worsened from Baseline: Daily Abdominal Pain ([1]; Weeks 13-26, 2 mg TID): 6-8% | Percentage of Subjects Who Worsened from Baseline: Daily Urgency ([1]; Weeks 13-26, 2 mg TID): 5-8% | Subjects worsened from Baseline, daily abdominal pain ([1]; Weeks 1-2): 13% | Subjects worsened from Baseline, daily urgency ([1]; Weeks 1-2): 7% | Bloating or abdominal distention score, change from Baseline at end of treatment ([1]; in vivo): −0.75 | Daily abdominal pain/discomfort score, change from Baseline at end of treatment ([1]; in vivo): −0.92 | Daily stool consistency score, change from Baseline at end of treatment ([1]; in vivo): −1.40 | Daily urgency score, change from Baseline at end of treatment ([1]; in vivo): −0.80 | Feeling of incomplete evacuation, change from Baseline at end of treatment ([1]; in vivo): −0.25 | Mean stool consistency score at end of treatment ([1]; in vivo): 4.27 | Mean straining, change from Baseline at end of treatment ([1]; in vivo): 0.06 | Pain-free days at end of treatment ([1]; in vivo): 0.29 | Stools per day, change from Baseline at end of treatment ([1]; in vivo): −1.60 | Urgency-free days at end of treatment ([1]; in vivo): 0.08 | Median rate of pain-free days ([1]; six-month period): 0.19 | Median rate of urgency-free days ([1]; six-month period): 0.07 | Pressure first producing esophageal pain ([2]; 4 mg TID oral 7 days): 42.3 (11.3) mmHg | Pressure first producing esophageal sensation ([2]; 4 mg TID oral 7 days): 27.4 (9.6) mmHg | Volume first producing esophageal pain ([2]; 4 mg TID oral 7 days): 14.6 (4.3) mL | Volume first producing esophageal sensation ([2]; 4 mg TID oral 7 days): 5.3 (3.5) mL | Pressure first producing esophageal pain, Differences from Placebo ([2]; 4 mg TID oral 7 days): 3.0 (24.0) mmHg | Pressure first producing esophageal sensation, Differences from Placebo ([2]; 4 mg TID oral 7 days): −2.5 (16.4) mmHg | Volume first producing esophageal pain, Differences from Placebo ([2]; 4 mg TID oral 7 days): 1.4 (4.9) mL | Volume first producing esophageal sensation, Differences from Placebo ([2]; 4 mg TID oral 7 days): −0.3 (4.8) mL | Pressure first producing esophageal pain ([2]; 8 mg TID oral 7 days): 41.0 (12.5) mmHg | Pressure first producing esophageal sensation ([2]; 8 mg TID oral 7 days): 28.4 (10.9) mmHg | Volume first producing esophageal pain ([2]; 8 mg TID oral 7 days): 13.9 (5.8) mL | Volume first producing esophageal sensation ([2]; 8 mg TID oral 7 days): 5.2 (3.6) mL | Pressure first producing esophageal pain, Differences from Placebo ([2]; 8 mg TID oral 7 days): 1.3 (22.5) mmHg | Pressure first producing esophageal sensation, Differences from Placebo ([2]; 8 mg TID oral 7 days): −2.5 (6.9) mmHg | Volume first producing esophageal pain, Differences from Placebo ([2]; 8 mg TID oral 7 days): 0.8 (3.6) mL | Volume first producing esophageal sensation, Differences from Placebo ([2]; 8 mg TID oral 7 days): −0.5 (1.8) mL | DN-AUC [3]: 14.1 (61) ng · h/mL
